Patent US6863907B2, “Antiallergic composition and antipruritic composition” (Sunstar, Inc., priority 1999, dated 2005)

Tested on: human basophilic leukemia cell line KU812
Test: Histamine release suppression test using human basophilic leukemia cell line KU812
Assay type: cell-based
Settings: KU812 cells, final concentration 0.01%, CRA-1 15 μg/ml stimulation, N=4
Method: Histamine Release Suppression Test Using Human Basophilic Leukemia Cell Line KU812
A human basophilic leukemia cell line KU812 was grown in a RPMI 1640 medium (GIBCO) supplemented with 10% fetal bovine serum (treated at 56° C. for 30 min), at 37° C. in 5% CO2. The medium was washed by addition of a histamine release buffer (IMMUNOTECH) followed by centrifugation (1500 rpm, 5 min, 4° C.) and removal of the supernatant. The washing procedure was carried out twice. Then, a histamine release buffer was added to prepare a cell suspension having a cell density of 10^5 cells/ml. […] After centrifugation (2000 rpm, 10 min, 4° C.), the histamine content of the supernatant was measured using a Histamine EIA Kit (IMMUNOTECH) (N=4). Then, the mean and standard deviation of the measured values were obtained from the calibration curve, and the histamine release suppression rate (%) was calculated according to the following equation: [formula] wherein: • A represents the histamine content (n M) released from cells treated with the test substance/reference substance and CRA-1; • B represents the histamine content (n M) released from untreated cells; and • C represents the histamine content (n M) released from cells treated with CRA-1 only.

## CNC[C@H](O)c1ccc(O)c(O)c1 [epinephrine]
  histamine release suppression rate: 52±16%
